Source: BindingDB's records for patent US11944616 (Institut National De La Sante Et De La Recherche Medicale …, 2024)

Target: Glutamate receptor ionotropic, NMDA 1 (Rattus norvegicus, UniProt P35439)
Assay: In Vitro Activity Assay
Source text: In Vitro Activity: Evaluation of NMDAR Blocking Activity Using Patch-ClampPrevious studies have shown that the NMDAR exists in the peripheral vasculature.All NMDAR subunits were examined by RT-PCR and sequencing in the peripheral endothelium and peripheral vascular smooth muscle cells.

Q: For CC[N@@+]1(CCO)[C@H]2Cc3ccccc3[C@@]1(C)c1ccccc12 [US11944616, Compound 27], which IC50 is on record?
A: 360 nM
